# Laboratory results taken from patent US4894219A, “Beta-agonist carbostyril derivatives, assay method and pharmacological composition” (University of Florida, priority 1988, dated 1990).
# Read-outs that look alike come from different tables or passages of the source.
# What was measured:
# beta-adrenergic receptor [1] = target: T1, beta-adrenergic receptor (Rattus norvegicus, UniProt P10608); assay: Washout experiment: irreversible binding after membrane pretreatment with compound 13; set-up: membranes prepared from rat reticulocytes; from tissue; host or cells: rat reticulocytes (blood cells), membranes; endogenous receptor
# T1 sequence (P10608 whole entry): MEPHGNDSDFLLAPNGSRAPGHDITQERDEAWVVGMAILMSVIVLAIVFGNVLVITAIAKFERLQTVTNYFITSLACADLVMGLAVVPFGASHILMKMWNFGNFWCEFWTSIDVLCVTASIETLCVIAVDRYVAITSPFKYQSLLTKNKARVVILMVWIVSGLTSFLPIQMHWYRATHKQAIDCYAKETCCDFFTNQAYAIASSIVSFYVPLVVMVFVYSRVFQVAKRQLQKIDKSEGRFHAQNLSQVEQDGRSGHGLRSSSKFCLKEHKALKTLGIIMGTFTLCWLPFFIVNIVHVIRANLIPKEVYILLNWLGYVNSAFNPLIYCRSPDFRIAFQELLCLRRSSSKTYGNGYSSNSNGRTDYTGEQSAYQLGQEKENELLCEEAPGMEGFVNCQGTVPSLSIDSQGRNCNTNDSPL
# Experimental: In the pretreatment experiments, reticulocyte membrane protein (3 mg/ml) was incubated in 50 mM Tris·HCl buffer at pH 7.4, containing 5 mM MgCl2 without and with 20 nM compound 13 for 30 min at 32° C. A parallel incubation was also performed containing 20 nM compound 13 plus 10 μM nadolol. At the end of the incubation the tubes were filled (30 ml) with ice-cold incubation buffer and centrifuged at 48000 g for 15 min. The pellets were washed three more times by centrifugation and resuspension and the final pellets were resuspended in 1 ml of incubation buffer for assay. The membrane content of β-adrenergic receptors was determined with (-)-^125 I]-iodocyanopindolol (10-100 pM) as described above. The binding maximums and dissociation constants (KD) were determined from linear regression analysis of Scatchard plots.
# Irreversible binding of compound (13) to the reticulocyte β-adrenergicreceptor was indicated by washout experiments.
# adenylate cyclase [2] = assay: Stimulation of adenylate cyclase activity in rat reticulocyte membranes; format: biochemical; details: for Intrinsic Activity, adenylate cyclase: as compared to (-)isoproterenol which was set to 1.0, 10 min; for intrinsic activity (efficacy) in words: compared with (-)isoproterenol; for EC50: rat reticulocyte membranes, mean ±SE, n = 3-6, read-out: EC50 (concentration that produced half-maximal enzyme activation), adenylate cyclase
# Experimental: Biochemical Methods. Adenylate Cyclase Activity. Rat reticulocytes were induced and membranes prepared as described by Baker et al, J. Biol. Chem., Vol. 260, p. […] These are the basal conditions. […] At the end of the incubation, 0.3 ml of 10 mM Tris.HCl buffer at pH 7.0 containing 5 mM EDTA was added to each tube and the tubes were placed in a boiling water bath for 5 min. After cooling to room temperature, the tubes were centrifuged for 5 min at 10000 g and the supernatant saved. The cAMP content of the supernatant was determined by a competitive protein binding assay. The amount of cAMP present was calculated from a standard curve determined with unlabeled cAMP. […] Basal and GTP-stimulated activity values were substracted from the values obtained in the presence of ligands and the concentration of ligands that produced half-maximal activity (EC50) were determined by using a dose-effect analysis with an Apple IIe computer. Membrane protein content was determined by the Lowry method with bovine serum albumin as standard.
# ornithine decarboxylase = assay: Induction of ornithine decarboxylase activity in the rat lung; format: in vivo; details: for Fold increase of ornithine decarboxylase activity over the basal level / Ornithine decarboxylase activity: rat lung
# beta-adrenergic receptor [3] = target: T1, beta-adrenergic receptor; assay: [^125 I]iodocyanopindolol (CYP) competition binding to the beta-adrenergic receptor in rat reticulocyte membranes
# Experimental: β-Adrenergic Receptor Binding. […] At the end of the incubation, the suspensions were diluted with 4 ml of ice-cold incubation buffer and poured onto Whatman GF/B glass fiber filters under reduced pressure. Each filter was washed with a further 8 ml of ice-cold buffer, placed in a scintillation vial, and counted. Specific binding to the receptor was calculated as the difference between total binding determined in the absence of alprenolol and the nonspecific binding determined in the presence of alprenolol. […] All data was statistically analyzed by using a one-way analysis of variance (ANOVA).
# [4] = tested on: beta-adrenergic receptors; assay: Loss of beta-adrenergic receptors in rat tissues after i.p. injection; format: in vivo; details: for Specific Ligand Binding / % reduction of receptors from controls: 3 hr; for beta-2-receptor selectivity in vivo: receptor loss in rat tissues
# Experimental: Rats were injected i.p. with either 2 or 5 mg/kg of structure (13) and 3 hr. later, the tissues were removed and assayed for the beta-adrenergic receptor content.
# adenylate cyclase [5] = assay: Time course of cAMP production in rat reticulocytes with propranolol addition (FIG. 3); format: biochemical; details: for irreversible binding and response at the beta-adrenergic receptor: conclusion from FIG. 3 and binding data; for cAMP production after propranolol added during incubation: propranolol added after 9 min ((-)isoproterenol) or 7 min (structure 13); for cAMP production, linearity with time: without propranolol
# Experimental: Biochemical Methods. Adenylate Cyclase Activity. Rat reticulocytes were induced and membranes prepared as described by Baker et al, J. Biol. Chem., Vol. 260, p. 15820 (1985). […] These are the basal conditions. When stimulation of activity was measured, the assay also contained 0.5 mM GTP and varying concentrations of (-)-isoproterenol or the carbostyril derivatives. At the end of the incubation, 0.3 ml of 10 mM Tris.HCl buffer at pH 7.0 containing 5 mM EDTA was added to each tube and the tubes were placed in a boiling water bath for 5 min. After cooling to room temperature, the tubes were centrifuged for 5 min at 10000 g and the supernatant saved. The cAMP content of the supernatant was determined by a competitive protein binding assay. The amount of cAMP present was calculated from a standard curve determined with unlabeled cAMP. Enzyme activity was linear with time and protein through 10 min and 0.1 mg, respectively. Basal and GTP-stimulated activity values were substracted from the values obtained in the presence of ligands and the concentration of ligands that produced half-maximal activity (EC50) were determined by using a dose-effect analysis with an Apple IIe computer. Membrane protein content was determined by the Lowry method with bovine serum albumin as standard.
# beta-2 = details: Yoshizaki et al, J. Med. Chem. 1977; cited from earlier work
# [6] = 0.1 mg/kg i.p., 3 hours, basal 1.9 + 0.4
# [7] = 0.1 mg/kg plus propranolol (5 mg/kg, 30 min before)
# [8] = listed as structure wherein X is NHCOCH2 Br
molecule,measurement,setting,value
"CC(C)(C)NCC(O)COc1cccc2c1CC(O)C(O)C2 (stereo not drawn) [nadolol, reference compound]",prevention of loss of specific binding sites by nadolol,beta-adrenergic receptor [1]; nadolol 10 μM in preincubation with compound 13,the loss of specific binding sites was completely prevented
CC(C)(Cc1ccc(NC(=O)CBr)cc1)NCC(O)c1ccc(O)c2nc(O)ccc12 (stereo not drawn) [Compound 13],"Intrinsic Activity, adenylate cyclase",adenylate cyclase [2],1.2
same,intrinsic activity (efficacy) in words,adenylate cyclase [2],higher intrinsic activities than (-)isoproterenol
same,EC50,adenylate cyclase [2],8.5 ± 3.5 nM
same,Fold increase of ornithine decarboxylase activity over the basal level,"ornithine decarboxylase; 0.1 mg/kg i.p., 3 hours",4.6 fold
same,Ornithine decarboxylase activity,ornithine decarboxylase; [6],8.7 + 0.5 nmol CO2 Formed/g tissue/hr
same,Ornithine decarboxylase activity,ornithine decarboxylase; [7],0.4 ± 0.06 nmol CO2 Formed/g tissue/hr
same,IC50,beta-adrenergic receptor [3],5.3 ± 0.8 nM
same,receptor concentration after pretreatment and washout,"beta-adrenergic receptor [1]; 20 nM compound 13, four wash cycles, control 576±22, mean ±SD, n=3",168±15 fmol/mg of protein
same,inhibition at 0.02 µM,"beta-adrenergic receptor [1]; 0.5 h, 20 nM compound 13, four wash cycles, read-out: decrease in the receptor concentration after pretreatment and washout",71%
same,Kd,"beta-adrenergic receptor [1]; compound 13 treated membranes (20 nM), control 13±3, read-out: KD value for (-)-[^125 I]iodocyanopindolol binding to the remaining receptors",0.011 ± 0.002 nM
same,loss of receptors in words,"[4]; cerebral cortex, 5 mg/kg",no significant loss of receptors
same,Specific Ligand Binding,"[4]; cerebral cortex, 5 mg/kg i.p., control 119 ± 10",114 ± 14 fmol/mg protein
same,loss of receptors in words,"[4]; heart or submaxillary gland, 5 mg/kg vs 2 mg/kg",no further loss of receptors was detected
same,% reduction of receptors from controls,"[4]; heart, 2 mg/kg i.p.",23%
same,Specific Ligand Binding,"[4]; heart, 2 mg/kg i.p., control 22.3 ± 1.0",17.1 ± 0.5 fmol/mg protein
same,% reduction of receptors from controls,"[4]; heart, 5 mg/kg i.p.",15%
same,Specific Ligand Binding,"[4]; heart, 5 mg/kg i.p., control 22.3 ± 1.0",18.9 ± 0.8 fmol/mg protein
same,blood brain barrier penetration,[4]; inferred from lack of receptor loss in cerebral cortex,cannot cross the blood brain barrier
same,% reduction of receptors from controls,"[4]; lung, 2 mg/kg i.p.",52%
same,Specific Ligand Binding,"[4]; lung, 2 mg/kg i.p., control 658 ± 27",318 ± 23 fmol/mg protein
same,% reduction of receptors from controls,"[4]; lung, 5 mg/kg i.p.",75%
same,Specific Ligand Binding,"[4]; lung, 5 mg/kg i.p., control 658 ± 27",166 ± 9 fmol/mg protein
same,beta-2-receptor selectivity in vivo,[4],receptor reductions were mainly due to losses of beta-2 receptors
same,beta-2-receptor selectivity in vivo,[4]; [8],high degree of beta-2-receptor selectivity in vivo
same,% reduction of receptors from controls,"[4]; spleen, 2 mg/kg i.p.",42%
same,Specific Ligand Binding,"[4]; spleen, 2 mg/kg i.p., control 53.2 ± 1.8",31 ± 4 fmol/mg protein
same,% reduction of receptors from controls,"[4]; spleen, 5 mg/kg i.p.",65%
same,Specific Ligand Binding,"[4]; spleen, 5 mg/kg i.p., control 53.2 ± 1.8",19 ± 1.2 fmol/mg protein
same,% reduction of receptors from controls,"[4]; submaxillary gland, 2 mg/kg i.p.",23%
same,Specific Ligand Binding,"[4]; submaxillary gland, 2 mg/kg i.p., control 98 ± 5.8",75 ± 3 fmol/mg protein
same,% reduction of receptors from controls,"[4]; submaxillary gland, 5 mg/kg i.p.",21%
same,Specific Ligand Binding,"[4]; submaxillary gland, 5 mg/kg i.p., control 98 ± 5.8",77 ± 3.7 fmol/mg protein
same,irreversible binding and response at the beta-adrenergic receptor,adenylate cyclase [5],irreversibly binds to the beta-adrenergic receptor and produces an irreversible response
same,irreversible binding and response at the beta-adrenergic receptor,adenylate cyclase [5]; [8],appears to bind irreversibly to the receptor and produce irreversible agonist effects
same,cAMP production after propranolol added during incubation,adenylate cyclase [5],no change in the rate of cAMP production occurred
same,cAMP production with propranolol added at time 0,adenylate cyclase [5]; propranolol added with structure 13 at time 0,stimulation of cAMP production was blocked
same,"cAMP production, linearity with time",adenylate cyclase [5],linear through 14 min
"CC[C@H](NC(C)C)[C@H](O)c1ccc(O)c2[nH]c(=O)ccc12 (relative stereo) [procaterol, erythro-5-(1-hydroxy-2-isopropylaminobutyl)-8-hydroxycarbostyril]",beta-2 agonist and bronchodilator activity in words,beta-2,potent beta-2 agonist and a bronchodilator
"CC(C)(Cc1ccc(I)cc1)NCC(O)c1ccc(O)c2[nH]c(=O)ccc12 (stereo not drawn) [Compound 11, 5-[2-[[1-(4-Iodophenyl)-2-methylprop-2-yl]amino]-1-hydroxyethyl]-8-hydroxycarbostyril]","Intrinsic Activity, adenylate cyclase",adenylate cyclase [2],1.3
same,intrinsic activity (efficacy) in words,adenylate cyclase [2],higher intrinsic activities than (-)isoproterenol
same,EC50,adenylate cyclase [2],5.6 ± 1.4 nM
same,IC50,beta-adrenergic receptor [3],7.6 ± 1.3 nM
CC(C)(Cc1ccc(N)cc1)NCC(O)c1ccc(O)c2[nH]c(=O)ccc12 (stereo not drawn) [Compound 12],"Intrinsic Activity, adenylate cyclase",adenylate cyclase [2],1.0
same,intrinsic activity (efficacy) in words,adenylate cyclase [2],equal to the intrinsic activity (efficacy) of (-)isoproterenol
same,EC50,adenylate cyclase [2],14.2 ± 4.7 nM
same,IC50,beta-adrenergic receptor [3],22 ± 3 nM
(-)isoproterenol [reference compound],"Intrinsic Activity, adenylate cyclase",adenylate cyclase [2],1.0
same,EC50,adenylate cyclase [2],226 ± 1.4 nM
same,Fold increase of ornithine decarboxylase activity over the basal level,"ornithine decarboxylase; 0.1 mg/kg i.p., 3 hours",6.5 fold
same,Ornithine decarboxylase activity,ornithine decarboxylase; [6],11.8 + 1.7 nmol CO2 Formed/g tissue/hr
same,Fold increase of ornithine decarboxylase activity over the basal level,"ornithine decarboxylase; 0.1 mg/kg i.p., 3 hours, listed as (-)Isoproterenol",6.2 fold
same,Ornithine decarboxylase activity,ornithine decarboxylase; [7],0.4 ± 0.09 nmol CO2 Formed/g tissue/hr
same,IC50,"beta-adrenergic receptor [3]; read-out: IC50 (concentration that inhibited CYP binding by 50%), rat reticulocyte membranes, mean ±SE, n = 3-6, 60 min",327 ± 17 nM
same,cAMP production after propranolol added during incubation,adenylate cyclase [5],no further cAMP was produced
same,"cAMP production, linearity with time",adenylate cyclase [5],linear through 14 min
CC(C)NCC(O)COc1cccc2ccccc12 (stereo not drawn) [propranolol],blocking of ornithine decarboxylase induction,ornithine decarboxylase; propranolol 5 mg/kg 30 min before (-)isoproterenol or compound 13,completely blocked
